This passage reports Ki results from patent US8710065B2, “Tricyclic inhibitors of kinases” (AbbVie Inc., priority 2011, dated 2014).

One may read the Ki as a measure of affinity in units of concentration, obtained from inhibition or displacement.

T1 sequence (P30291 whole entry): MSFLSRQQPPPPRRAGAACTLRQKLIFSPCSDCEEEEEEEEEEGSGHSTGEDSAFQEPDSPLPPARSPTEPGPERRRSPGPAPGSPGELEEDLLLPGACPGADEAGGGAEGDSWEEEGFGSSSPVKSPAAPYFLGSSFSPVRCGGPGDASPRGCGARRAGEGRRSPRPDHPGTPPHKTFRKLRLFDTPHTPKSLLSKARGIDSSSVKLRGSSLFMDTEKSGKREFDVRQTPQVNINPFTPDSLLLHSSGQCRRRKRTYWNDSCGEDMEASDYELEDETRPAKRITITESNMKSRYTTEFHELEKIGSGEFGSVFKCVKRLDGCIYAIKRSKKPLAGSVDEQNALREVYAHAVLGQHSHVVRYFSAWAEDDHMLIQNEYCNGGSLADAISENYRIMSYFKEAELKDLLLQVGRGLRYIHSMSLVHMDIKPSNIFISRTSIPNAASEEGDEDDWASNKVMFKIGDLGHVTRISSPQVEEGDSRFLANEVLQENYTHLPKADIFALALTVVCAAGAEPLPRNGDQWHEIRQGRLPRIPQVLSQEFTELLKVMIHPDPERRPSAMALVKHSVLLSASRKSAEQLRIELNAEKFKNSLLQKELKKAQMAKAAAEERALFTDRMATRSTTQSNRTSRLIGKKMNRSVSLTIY

This experiment concerns the target T1, GST-tagged-Wee1 kinase (Homo sapiens, UniProt P30291).
T1 construct: purchased Carnabio (Carna Biosciences) 05-177
Briefly: Wee1 time-resolved fluorescence equilibrium binding assay (displacement of Oregon Green-labeled ATP-competitive kinase probe). The following applies: read-out: Wee-1 inhibition (Ki). As for the experimental part: Wee1 kinase was assayed using a time-resolved fluorescence equilibrium binding assay monitoring displacement of a rapidly reversible Oregon Green-labeled ATP-competitive kinase probe (N-(2-(2-(2-(4-(4-(5-chloro-4-(2-(1-hydroxycyclobutyl)thiazol-5-yl)-1H-pyrrolo[2,3-b]pyridin-2-yl)phenyl)piperazin-1-yl)ethoxy)ethoxy)ethyl)-2′,7′-difluoro-3′,6′-dihydroxy-3-oxo-3H-spiro[isobenzofuran-1,9′-xanthene]-5-carboxamide) by competitive Wee1 inhibitors.
Table 1 depicts enzyme inhibition data (Ki) for exemplary compounds.
With `O=c1c2cnc(Nc3ccc4c(c3)CC(NCCF)C4)nc2n2ccnc2n1-c1c(F)cccc1Cl` (centres unmarked) [Example 257, 6-(2-chloro-6-fluorophenyl)-2-({2-[(2-fluoroethyl)amino]-2,3-dihydro-1H-inden-5-yl}amino)imidazo[1,2-a]pyrimido[5,4-e]pyrimidin-5(6H)-one], the Ki was under 0.01 µM.

Consider `Cc1cc(Nc2ncc3c(=O)n(-c4c(Cl)cc(F)cc4Cl)c4nccn4c3n2)ccc1N1CCCN(C)CC1` [Example 124, 6-(2,6-dichloro-4-fluorophenyl)-2-{[3-methyl-4-(4-methyl-1,4-diazepan-1-yl)phenyl]amino}imidazo[1,2-a]pyrimido[5,4-e]pyrimidin-5(6H)-one], for which the inhibition constant (Ki) was under 0.01 µM.

With `O=c1c2cnc(Nc3cc(F)c(N4CCNCC4)c(F)c3)nc2n2ccnc2n1-c1c(Cl)cccc1Cl` [Example 129, 6-(2,6-dichlorophenyl)-2-{[3,5-difluoro-4-(piperazin-1-yl)phenyl]amino}imidazo[1,2-a]pyrimido[5,4-e]pyrimidin-5(6H)-one], the Ki was under 0.01 µM.

Take `O=c1c2cnc(Nc3ccc(C4CCCN4)cc3)nc2n2ccnc2n1-c1c(Cl)cccc1Cl` (centres unmarked) [Example 134, 6-(2,6-dichlorophenyl)-2-{[4-(pyrrolidin-2-yl)phenyl]amino}imidazo[1,2-a]pyrimido[5,4-e]pyrimidin-5(6H)-one]: the Ki is under 0.01 µM.

`O=c1c2cnc(Nc3ccc(C4CCCCN4)cc3)nc2n2ccnc2n1-c1c(Cl)cccc1Cl` (centres unmarked) [Example 135, 6-(2,6-dichlorophenyl)-2-{[4-(piperidin-2-yl)phenyl]amino}imidazo[1,2-a]pyrimido[5,4-e]pyrimidin-5(6H)-one]: the Ki was under 0.01 µM.

For `CS(=O)(=O)N1CCC2(CN(c3ccc(Nc4ncc5c(=O)n(-c6c(Cl)cccc6Cl)c6nccn6c5n4)cc3)C2)C1` [Example 324, 6-(2,6-dichlorophenyl)-2-({4-[6-(methylsulfonyl)-2,6-diazaspiro[3.4]oct-2-yl]phenyl}amino)imidazo[1,2-a]pyrimido[5,4-e]pyrimidin-5(6H)-one], the inhibition constant (Ki) is under 0.01 µM.

`CN(C)CCOc1ccc(Nc2ncc3c(=O)n(-c4ccccc4Cl)c4nccn4c3n2)cc1` [Example 35, 6-(2-chlorophenyl)-2-({4-[2-(dimethylamino)ethoxy]phenyl}amino)imidazo[1,2-a]pyrimido[5,4-e]pyrimidin-5(6H)-one]: the Ki was under 0.01 µM.

With `O=c1c2cnc(Nc3ccccc3)nc2n2ccnc2n1-c1ccccc1Cl` [Example 2, 2-anilino-6-(2-chlorophenyl)imidazo[1,2-a]pyrimido[5,4-e]pyrimidin-5(6H)-one], the Ki is 0.01 to 0.1 µM.

Take `CN1CCC(c2ccc(Nc3ncc4c(=O)n(-c5ccccc5Cl)c5nccn5c4n3)cc2)CC1` [Example 38, 6-(2-chlorophenyl)-2-{[4-(1-methylpiperidin-4-yl)phenyl]amino}imidazo[1,2-a]pyrimido[5,4-e]pyrimidin-5(6H)-one]: the Ki is under 0.01 µM.

For the molecule `O=c1c2cnc(Nc3ccc(N4CCN5CCCCC5C4)cc3)nc2n2ccnc2n1-c1ccccc1Cl` (centres unmarked) [Example 208, 6-(2-chlorophenyl)-2-{[4-(octahydro-2H-pyrido[1,2-a]pyrazin-2-yl)phenyl]amino}imidazo[1,2-a]pyrimido[5,4-e]pyrimidin-5(6H)-one], the Ki is under 0.01 µM.

In the case of `O=C(N[C@H]1CC[C@H](O)CC1)c1ccc(Nc2ncc3c(=O)n(-c4ccccc4Cl)c4nccn4c3n2)cc1` [Example 46, 4-{[6-(2-chlorophenyl)-5-oxo-5,6-dihydroimidazo[1,2-a]pyrimido[5,4-e]pyrimidin-2-yl]amino}-N-(trans-4-hydroxycyclohexyl)benzamide], the Ki lay within 0.01 to 0.1 µM.

As for `Cc1cc(Nc2ncc3c(=O)n(-c4ccccc4Cl)c4nccn4c3n2)ccc1N1CCCNCC1` [Example 105, 6-(2-chlorophenyl)-2-{[4-(1,4-diazepan-1-yl)-3-methylphenyl]amino}imidazo[1,2-a]pyrimido[5,4-e]pyrimidin-5(6H)-one], the inhibition constant (Ki) is under 0.01 µM.

`CC1(C)CNCc2cc(Nc3ncc4c(=O)n(-c5c(Cl)cccc5Cl)c5nccn5c4n3)ccc21` [Example 307, 6-(2,6-dichlorophenyl)-2-[(4,4-dimethyl-1,2,3,4-tetrahydroisoquinolin-7-yl)amino]imidazo[1,2-a]pyrimido[5,4-e]pyrimidin-5(6H)-one]: the Ki was under 0.01 µM.

With `O=c1c2cnc(Nc3ccc(N4CCN(C5COC5)CC4)cc3)nc2n2ccnc2n1-c1ccccc1Cl` [Example 211, 6-(2-chlorophenyl)-2-({4-[4-(oxetan-3-yl)piperazin-1-yl]phenyl}amino)imidazo[1,2-a]pyrimido[5,4-e]pyrimidin-5(6H)-one], the Ki was 0.01 to 0.1 µM.

As to `CCN(CC)CCOc1ccc(Nc2ncc3c(=O)n(-c4ccccc4Cl)c4nccn4c3n2)cc1` [Example 44, 6-(2-chlorophenyl)-2-({4-[2-(diethylamino)ethoxy]phenyl}amino)imidazo[1,2-a]pyrimido[5,4-e]pyrimidin-5(6H)-one], the Ki is under 0.01 µM.

For the molecule `COc1cc(Nc2ncc3c(=O)n(-c4ccccc4Cl)c4nccn4c3n2)ccc1OCCN1CCN(C)CC1` [Example 67, 6-(2-chlorophenyl)-2-({3-methoxy-4-[2-(4-methylpiperazin-1-yl)ethoxy]phenyl}amino)imidazo[1,2-a]pyrimido[5,4-e]pyrimidin-5(6H)-one], the Ki was under 0.01 µM.

Take `CC1(C)CN(CC(F)F)Cc2cc(Nc3ncc4c(=O)n(-c5c(F)cccc5Cl)c5nccn5c4n3)ccc21` [Example 280, 6-(2-chloro-6-fluorophenyl)-2-{[2-(2,2-difluoroethyl)-4,4-dimethyl-1,2,3,4-tetrahydroisoquinolin-7-yl]amino}imidazo[1,2-a]pyrimido[5,4-e]pyrimidin-5(6H)-one]: the Ki lay in the range of 0.01 to 0.1 µM.

On to `CC(C)n1c(=O)c2cnc(Nc3ccc4c(c3)CN(C)CC43CC3)nc2n2ccnc12` [Example 142, 2-[(2′-methyl-2′,3′-dihydro-1′H-spiro[cyclopropane-1,4′-isoquinolin]-7′-yl)amino]-6-(propan-2-yl)imidazo[1,2-a]pyrimido[5,4-e]pyrimidin-5(6H)-one], for which the Ki lay within 0.01 to 0.1 µM.

As to `O=C1CCC(c2ccc(Nc3ncc4c(=O)n(-c5c(Cl)cccc5Cl)c5nccn5c4n3)cc2)=NN1` [Example 180, 6-(2,6-dichlorophenyl)-2-{[4-(6-oxo-1,4,5,6-tetrahydropyridazin-3-yl)phenyl]amino}imidazo[1,2-a]pyrimido[5,4-e]pyrimidin-5(6H)-one], the Ki is under 0.01 µM.

Consider `CN(C)CCCN1CCN(c2ccc(Nc3ncc4c(=O)n(-c5ccccc5Cl)c5nccn5c4n3)cc2)CC1` [Example 250, 6-(2-chlorophenyl)-2-[(4-{4-[3-(dimethylamino)propyl]piperazin-1-yl}phenyl)amino]imidazo[1,2-a]pyrimido[5,4-e]pyrimidin-5(6H)-one], for which the Ki is under 0.01 µM.

On to `O=c1c2cnc(Nc3ccc4c(c3)CC(N3CCCC3)C4)nc2n2ccnc2n1-c1c(F)cccc1Cl` (centres unmarked) [Example 259, 6-(2-chloro-6-fluorophenyl)-2-{[2-(pyrrolidin-1-yl)-2,3-dihydro-1H-inden-5-yl]amino}imidazo[1,2-a]pyrimido[5,4-e]pyrimidin-5(6H)-one], for which the Ki was under 0.01 µM.

As for `O=c1c2cnc(Nc3ccc4c(c3)CN(CCO)CC4)nc2n2ccnc2n1-c1ccccc1Cl` [Example 99, 6-(2-chlorophenyl)-2-{[2-(2-hydroxyethyl)-1,2,3,4-tetrahydroisoquinolin-7-yl]amino}imidazo[1,2-a]pyrimido[5,4-e]pyrimidin-5(6H)-one], the Ki is under 0.01 µM.

For `O=c1c2cnc(Nc3ccc4c(c3)CCNC4)nc2n2ccnc2n1-c1c(Cl)cccc1Cl` [Example 122, 6-(2,6-dichlorophenyl)-2-(1,2,3,4-tetrahydroisoquinolin-6-ylamino)imidazo[1,2-a]pyrimido[5,4-e]pyrimidin-5(6H)-one], the Ki was under 0.01 µM.

For `CN1Cc2cc(Nc3ncc4c(=O)n(-c5c(F)cccc5Cl)c5nccn5c4n3)ccc2C2(CC2)C1` [Example 140, 6-(2-chloro-6-fluorophenyl)-2-[(2′-methyl-2′,3′-dihydro-1′H-spiro[cyclopropane-1,4′-isoquinolin]-7′-yl)amino]imidazo[1,2-a]pyrimido[5,4-e]pyrimidin-5(6H)-one], the inhibition constant Ki was under 0.01 µM.

In the case of `CN1CCN(c2ccc(Nc3ncc4c(=O)n(-c5cccc(F)c5)c5nccn5c4n3)cc2)CC1` [Example 336, 6-(3-fluorophenyl)-2-{[4-(4-methylpiperazin-1-yl)phenyl]amino}imidazo[1,2-a]pyrimido[5,4-e]pyrimidin-5(6H)-one], the Ki was 0.01 to 0.1 µM.

Take `O=c1c2cnc(Nc3ccc(OCCN4CCOCC4)cc3)nc2n2ccnc2n1-c1ccccc1Cl` [Example 36, 6-(2-chlorophenyl)-2-({4-[2-(morpholin-4-yl)ethoxy]phenyl}amino)imidazo[1,2-a]pyrimido[5,4-e]pyrimidin-5(6H)-one]: the inhibition constant Ki fell in the range of 0.01 to 0.1 µM.

As for `COc1cc(Nc2ncc3c(=O)n(-c4ccccc4Cl)c4nccn4c3n2)ccc1N1CCN(C(C)C)CC1` [Example 66, 6-(2-chlorophenyl)-2-({3-methoxy-4-[4-(propan-2-yl)piperazin-1-yl]phenyl}amino)imidazo[1,2-a]pyrimido[5,4-e]pyrimidin-5(6H)-one], the inhibition constant (Ki) was under 0.01 µM.

Consider `O=c1c2cnc(Nc3ccc(N4CCNCC4)nc3)nc2n2ccnc2n1-c1c(Cl)cc(F)cc1Cl` [Example 173, 6-(2,6-dichloro-4-fluorophenyl)-2-{[6-(piperazin-1-yl)pyridin-3-yl]amino}imidazo[1,2-a]pyrimido[5,4-e]pyrimidin-5(6H)-one], for which the Ki was under 0.01 µM.

Consider `O=c1c2cnc(Nc3ccc(N4CC5(CNC5)C4)cc3)nc2n2ccnc2n1-c1c(Cl)cccc1Cl` [Example 304, 2-{[4-(2,6-diazaspiro[3.3]hept-2-yl)phenyl]amino}-6-(2,6-dichlorophenyl)imidazo[1,2-a]pyrimido[5,4-e]pyrimidin-5(6H)-one], for which the Ki is under 0.01 µM.
